Measured values from the NIST ThermoML archive (doi:10.1021/je700260f).

Details: 323.14 K, Liquid, Vibrating tube method

FC(C(F)(F)F)C(F)(F)F [1,1,1,2,3,3,3-heptafluoropropane]
Details	mass density [kg/m3]
18469 kPa	1413.4
18489 kPa	1413.6
18518 kPa	1413.8
18639 kPa	1414.5
18664 kPa	1414.6
18688 kPa	1414.7
18713 kPa	1414.8
18738 kPa	1414.8
18764 kPa	1415.1
18787 kPa	1415.1
18806 kPa	1415.3
18836 kPa	1415.4
19030 kPa	1416.6
19049 kPa	1416.5
19073 kPa	1416.7
19091 kPa	1416.8
19111 kPa	1416.8
19136 kPa	1416.9
19224 kPa	1417.4
19244 kPa	1417.5
19276 kPa	1417.6
19303 kPa	1417.9
19335 kPa	1418
19359 kPa	1418.1
19382 kPa	1418.2
19410 kPa	1418.4
19431 kPa	1418.5
19452 kPa	1418.4
19473 kPa	1418.7
19509 kPa	1418.8
19534 kPa	1419.1
19563 kPa	1419.2
19591 kPa	1419.1
19608 kPa	1419.2
19637 kPa	1419.5
19667 kPa	1419.6
19693 kPa	1419.8
19721 kPa	1419.9
19746 kPa	1419.9
19771 kPa	1420
19795 kPa	1420.5
19830 kPa	1420.4
19857 kPa	1420.6
19893 kPa	1420.7
19917 kPa	1420.9
19942 kPa	1421.1
19968 kPa	1421.2
19996 kPa	1421.3
20014 kPa	1421.4
20047 kPa	1421.4
20075 kPa	1421.5
20101 kPa	1421.8
20124 kPa	1421.9
20452 kPa	1423.5
20511 kPa	1423.8
20538 kPa	1423.8
20571 kPa	1424.1
20600 kPa	1424.3
20632 kPa	1424.4
20657 kPa	1424.6
20681 kPa	1424.6
20715 kPa	1424.8
20735 kPa	1424.9
20759 kPa	1425
20780 kPa	1425.1
20814 kPa	1425.2
20837 kPa	1425.4
20864 kPa	1425.5
20891 kPa	1425.6
20919 kPa	1425.8
20943 kPa	1425.8
20963 kPa	1426
20994 kPa	1426.2
21021 kPa	1426.3
21041 kPa	1426.4
21069 kPa	1426.5
21100 kPa	1426.5
21124 kPa	1426.7
21151 kPa	1426.8
21174 kPa	1427
21195 kPa	1427.2
21219 kPa	1427.1
21243 kPa	1427.2
21271 kPa	1427.4
21296 kPa	1427.5
21318 kPa	1427.7
21353 kPa	1427.8
21376 kPa	1428.1
21404 kPa	1428.1
21424 kPa	1428.1
21456 kPa	1428.3
21478 kPa	1428.4
21511 kPa	1428.6
21546 kPa	1428.8
21572 kPa	1428.9
21597 kPa	1429
21630 kPa	1429.1
21660 kPa	1429.3
21684 kPa	1429.4
21712 kPa	1429.4
21734 kPa	1429.6
22001 kPa	1430.9
22031 kPa	1431
22058 kPa	1431.1
22088 kPa	1431.3
22114 kPa	1431.5
22137 kPa	1431.4
22174 kPa	1431.7
22209 kPa	1431.8
22233 kPa	1432
22272 kPa	1432.1
22308 kPa	1432.2
22334 kPa	1432.5
22366 kPa	1432.6
22390 kPa	1432.7
22418 kPa	1432.7
22439 kPa	1432.9
22462 kPa	1433.1
22489 kPa	1433.2
22513 kPa	1433.3
22533 kPa	1433.3
22571 kPa	1433.6
22602 kPa	1433.6
22627 kPa	1433.8
22657 kPa	1434
22685 kPa	1434.1
22721 kPa	1434.2
22744 kPa	1434.3
22777 kPa	1434.5
22801 kPa	1434.6
22825 kPa	1434.6
22862 kPa	1434.8
22889 kPa	1435
22927 kPa	1435.2
22962 kPa	1435.2
23026 kPa	1435.6
23049 kPa	1435.7
23075 kPa	1435.7
23101 kPa	1436
23130 kPa	1436.1
23163 kPa	1436.3
23185 kPa	1436.3
23221 kPa	1436.4
23254 kPa	1436.5
23276 kPa	1436.7
23305 kPa	1436.8
23328 kPa	1437
23354 kPa	1437.1
23380 kPa	1437.2
23402 kPa	1437.2
23428 kPa	1437.5
23454 kPa	1437.5
23484 kPa	1437.7
23510 kPa	1437.7
23538 kPa	1437.9
23560 kPa	1438
23587 kPa	1438.1
23609 kPa	1438.2
23776 kPa	1439
23810 kPa	1439
23832 kPa	1439.2
23865 kPa	1439.2
23891 kPa	1439.5
23918 kPa	1439.6
23949 kPa	1439.6
23975 kPa	1439.9
23998 kPa	1439.9
24025 kPa	1440
24056 kPa	1440
24079 kPa	1440.3
24109 kPa	1440.4
24134 kPa	1440.5
24156 kPa	1440.7
24187 kPa	1440.7
24223 kPa	1440.9
24254 kPa	1441.1
24277 kPa	1441.2
24304 kPa	1441.1
24342 kPa	1441.4
24400 kPa	1441.5
24420 kPa	1441.7
24564 kPa	1442.3
24596 kPa	1442.6
24658 kPa	1442.8
24699 kPa	1443
24727 kPa	1443.1
24768 kPa	1443.2
24794 kPa	1443.4
24828 kPa	1443.6
24859 kPa	1443.8
24889 kPa	1443.8
24914 kPa	1444
24955 kPa	1444.1
24984 kPa	1444.1
25017 kPa	1444.3
25047 kPa	1444.4
25081 kPa	1444.7
25116 kPa	1444.8
25141 kPa	1445
25410 kPa	1446.1
25440 kPa	1446.3
25947 kPa	1448.3
25974 kPa	1448.4
26063 kPa	1448.8
26227 kPa	1449.5
26309 kPa	1449.7
